Data from US20230295181A1, “INHIBITOR OF APOPTOSIS (IAP) PROTEIN ANTAGONISTS” (Sanford Burnham Prebys Medical Discovery Institute, priority 2020, published 2023).
Counter-ions that a name gives are not always drawn.

Key:
Caspase 3/7 (OVCAR-4) = assay: Induction of caspase 3/7 activity (CaspaseGlo), OVCAR-4; format: cell-based; details: Homo sapiens
Procedure: (§1) Candidate compounds are tested in 384-well plates for effects on cell viability in the presence or absence of an appropriate conventional anticancer drug. Cell viability is indirectly monitored in the first instance using CellTiterGlo (Promega Corp., Madison, WI) (Table D). To determine if cell death is apoptotic, the induction of caspase activity is assessed utilizing the CaspaseGlo Assay system (Promega Corp., Madison, WI) (Table E). Cell viability is monitored 1 to 3 days after addition of compounds and conventional drugs. […] A compound of any of the formulae as disclosed herein is evaluated in combination with said anticancer drug to determine which ML-IAP antagonist can sensitize most efficaciously. Select candidate compounds are tested in 14 point drug dose response (DDR) curves in a 384-well format in order to establish potency in combination with decreasing concentrations of lung cancer relevant drug regimens. Furthermore, checker-board titrations of a conventional drug and the candidate molecules are performed to search for synergy (using ISOBOLOGRAM analysis). Compounds and combinations as described herein are also tested for cytotoxicity against normal human cells (e.g. primary fibroblasts, lymphocytes, hepatocytes, epithelial and endothelial cells) using known methods.
(§2) The induction of caspase activities was tested with a compound as disclosed in Table E. The activities are indicated according to the following legend: […]

OVCAR-4 = assay: Cell viability (CellTiterGlo), OVCAR-4; format: cell-based; details: Homo sapiens
Procedure: as §1
(§3) Cell viability was evaluated following treatment with a compound as disclosed in Table D. Viability of cancer cells following treatment is indicated according to the following legend: […]

SKOV-3 = assay: Cell viability (CellTiterGlo), SKOV-3; format: cell-based; details: Homo sapiens, SK-OV-3
Procedure: as §1, §3

Caspase 3/7 (SKOV-3) = assay: Induction of caspase 3/7 activity (CaspaseGlo), SKOV-3; format: cell-based; details: Homo sapiens, SK-OV-3
Procedure: as §1, §2

[1] = In vivo PK plasma exposure in mice
Procedure: Pharmacokinetic (PK) studies are performed in vivo in mice for compounds as described herein. Standard formulations are evaluated, including hydroxypropyl methylcellulose, carboxymethylcellulose, and polyethylene glycol. For intravenous studies, compounds are administered via indwelling catheters in jugular vein and samples collected from the carotid artery. These experiments provide basic pharmacokinetic parameters including peak plasma concentration (Cmax), bioavailability (% F), exposure (AUC), half-life (t½), clearance (CL), volume of distribution (Vd), and brain levels. To measure bioavailability, a compound as described herein is administered to three animals/group, both orally (10 mg/kg) and intravenously (1 mg/kg). Intraperitoneally administration is also assessed in order to determine both brain and plasma levels of compounds.
The compounds described herein were tested in vivo in mice to measure PK plasma exposure as shown in Table F. The PK plasma values are indicated according to the following legend: […]

Caspase 9 (SKOV-3) = assay: Induction of caspase 9 activity (CaspaseGlo), SKOV-3; format: cell-based; details: Homo sapiens, SK-OV-3
Procedure: as §1, §2

SKOV-3 cancer cell lines = assay: SKOV-3 cell viability after treatment with 10 μM test compound; format: cell-based; details: for viability at 10 µM: Homo sapiens, SK-OV-3, 10 micromolar test compound, SKOV-3 cells
Procedure: SKOV-3 cancer cell lines were treated with a test compound, either as a pure enantiomer or a mixture of stereoisomers, at a concentration of 10 μM. Cell viability was evaluated following treatment with a compound as disclosed in Table B. Viability of cancer cells following treatment is indicated according to the following legend:
A=0-25% viability B=26-50% viability C=>50% viability

XIAP-BIR3 = XIAP-BIR3 (Homo sapiens (Human), UniProt P98170); assay: Fluorescence polarization (FP) assay, inhibition of SMAC peptide binding
Procedure: Compounds of the present disclosure were evaluated for potency and selectivity in a fluorescence polarization (FP) assay that measures inhibition of SMAC peptide binding to ML-IAP. To measure SMAC peptide binding, multi-well plate format FP assays based on the ability of SMAC peptides to bind the BIR domains of several IAPs are used to generate IC50 and Ki values for analogues. The FP assays utilize plasmid constructs encoding various full length IAPs or fragments for expression as either GST or His6-fusion proteins in bacteria. Compounds are evaluated for activity against several members of the IAP family, including the BIR domains of XIAP, cIAP1 and cIAP2 in order to generate selectivity profiles of the compounds disclosed herein. These assays also enable the identification and characterization of potency profiles of ML-IAP binding.
Activity of the compounds are indicated according to the following legend: […]

H460 lung cancer cells = assay: Sensitization of lung cancer cells to standard of care treatment (vinorelbine); format: cell-based; details: combination with vinorelbine, FIG. 1
Procedure: In order to assess the role of ML-IAP antagonists in cancer treatment, H460 lung cancer cells are treated with a standard of care treatment (e.g., vinorelbine) alone or in combination with a selective ML-IAP antagonist. […] The leftward shift in the dose dependent response (DDR) curve indicates a resensitization of lung cancer cells to the anti-cancer agent. Furthermore, TNF induction is absent following treatment with a compound described herein in breast cancer MDA-MB-231 cells. This effect provides a substantial advantage clinically as it avoids an inappropriate inflammatory response.

Chain of XIAP-BIR3 (P98170 241-356): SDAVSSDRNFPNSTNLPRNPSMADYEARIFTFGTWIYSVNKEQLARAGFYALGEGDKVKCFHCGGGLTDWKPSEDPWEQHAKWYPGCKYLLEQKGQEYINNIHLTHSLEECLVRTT

Molecule `CCC1(CC)C[C@@H]2SCC[C@H](NC(=O)[C@H](C)NC)C(=O)N2C1C(=O)N[C@@H]1CCCc2ccccc21` (mixture of isomers) [Compound 38, (4S,9aS)-8,8-diethyl-4-((S)-2-(methylamino)propanamido)-5-oxo-N—((R)-1,2,3,4-tetrahydronaphthalen-1-yl)octahydropyrrolo[2,1-b][1,3]thiazepine-7-carboxamide hydrochloride] has an EC50 (Caspase 3/7 (OVCAR-4)) of 1 to 10 nM, an IC50 (OVCAR-4) of 10 to 100 nM and an IC50 (SKOV-3) of 10 to 100 nM. For the same molecule, the EC50 (Caspase 3/7 (SKOV-3)) was 1 to 10 nM, the “PK plasma exposure at 1 h (IP, 10 mg/kg)” value [1] was “iii (iii=500-1000 nM)” and the EC50 (Caspase 9 (SKOV-3)) was 1 to 10 nM. The “% viability after treatment with 10 micromolar of test compound (SKOV-3 cells)” value (SKOV-3 cancer cell lines; 10 micromolar test compound, hydrochloride) was “A (A=0-25% viability)” and the Ki (XIAP-BIR3) was over 100 nM.
Work on `CN[C@@H](C)C(=O)N[C@@H]1C(=O)N2[C@H](CC(C)(C)[C@H]2C(=O)N[C@@H]2CCCc3ccccc32)OC2CCCCC21` (single isomer, unassigned) [Compound 65, hydrochloride] yielded an EC50 (Caspase 3/7 (OVCAR-4)) of 1 to 10 nM, an IC50 (OVCAR-4) of 10 to 100 nM and an IC50 (SKOV-3) of 10 to 100 nM. For the same molecule, the EC50 (Caspase 3/7 (SKOV-3)) was 1 to 10 nM, the “PK plasma exposure at 1 h (IP, 10 mg/kg)” value [1] was “iii (iii=500-1000 nM)” and the EC50 (Caspase 9 (SKOV-3)) was 1 to 10 nM. It also gave a viability at 10 µM (SKOV-3 cancer cell lines) of 0 to 25% and a Ki (XIAP-BIR3) of 10 to 100 nM.
Work on `CN[C@@H](C)C(=O)N[C@H]1CCS[C@H]2CC3(CCCC3)[C@@H](C(=O)N[C@@H]3CCCc4ccccc43)N2C1=O` [Compound 80, (4'S,7'S,9a'S)-4′-((S)-2-(methylamino)propanamido)-5′-oxo-N—((R)-1,2,3,4-tetrahydronaphthalen-1-yl)hexahydro-7′H-spiro[cyclopentane-1,8′-pyrrolo[2,1-b][1,3]thiazepine]-7′-carboxamide hydrochloride] yielded an EC50 (Caspase 3/7 (OVCAR-4)) of under 1 nM, an IC50 (OVCAR-4) of 1 to 10 nM and an IC50 (SKOV-3) of under 1 nM. For the same molecule, the EC50 (Caspase 3/7 (SKOV-3)) was under 1 nM, the “PK plasma exposure at 1 h (IP, 10 mg/kg)” value [1] was “iii (iii=500-1000 nM)” and the EC50 (Caspase 9 (SKOV-3)) was under 1 nM. For the same molecule, the viability at 10 µM (SKOV-3 cancer cell lines) was 0 to 25% and the Ki (XIAP-BIR3) was 10 to 100 nM.
For `CN[C@@H](C)C(=O)N[C@H]1CCOC2CC3(CC=CC3)C(C(=O)N[C@@H]3CCCc4ccccc43)N2C1=O` (stereo partly drawn) [Compound 81, (4'S)-4′-((S)-2-(methylamino)propanamido)-5′-oxo-N—((R)-1,2,3,4-tetrahydronaphthalen-1-yl)-2′,3′,4′,5′,9′,9a′-hexahydro-7′H-spiro[cyclopentane-1,8′-pyrrolo[2,1-b][1,3]oxazepin]-3-ene-7′-carboxamide hydrochloride], the EC50 (Caspase 3/7 (OVCAR-4)) was 1 to 10 nM, the IC50 (OVCAR-4) was 10 to 100 nM and the IC50 (SKOV-3) was 1 to 10 nM. The EC50 (Caspase 3/7 (SKOV-3)) was 1 to 10 nM, the “PK plasma exposure at 1 h (IP, 10 mg/kg)” value [1] was “iii (iii=500-1000 nM)” and the EC50 (Caspase 9 (SKOV-3)) was 1 to 10 nM. The viability at 10 µM (SKOV-3 cancer cell lines) was 0 to 25% and the Ki (XIAP-BIR3) was 10 to 100 nM.
Molecule `CN[C@@H](C)C(=O)N[C@H]1CCOC2CC3(CCCC3)C(C(=O)N[C@@H]3CCCc4ccccc43)N2C1=O` (stereo partly drawn) [Compound 82, (4'S)-4′-((S)-2-(methylamino)propanamido)-5′-oxo-N—((R)-1,2,3,4-tetrahydronaphthalen-1-yl)hexahydro-7′H-spiro[cyclopentane-1,8′-pyrrolo[2,1-b][1,3]oxazepine]-7′-carboxamide hydrochloride] has an EC50 (Caspase 3/7 (OVCAR-4)) of 1 to 10 nM, an IC50 (OVCAR-4) of 1 to 10 nM and an IC50 (SKOV-3) of 1 to 10 nM. For the same molecule, the EC50 (Caspase 3/7 (SKOV-3)) was 1 to 10 nM, the “PK plasma exposure at 1 h (IP, 10 mg/kg)” value [1] was “iv (iv=>1000 nM)” and the EC50 (Caspase 9 (SKOV-3)) was 1 to 10 nM. It also gave a viability at 10 µM (SKOV-3 cancer cell lines) of 0 to 25% and a Ki (XIAP-BIR3) of 10 to 100 nM.
For `CN[C@@H](C)C(=O)N[C@H]1CCS[C@H]2CC(C)(C)C(C(=O)N[C@@H]3CCCc4ccccc43)N2C1=O` (stereo partly drawn) [Compound A, (4S,9aS)-8,8-dimethyl-4-((S)-2-(methylamino)propanamido)-5-oxo-N—((R)-1,2,3,4-tetrahydronaphthalen-1-yl)octahydropyrrolo[2,1-b][1,3]thiazepine-7-carboxamide hydrochloride], the EC50 (Caspase 3/7 (OVCAR-4)) was 1 to 10 nM, the IC50 (OVCAR-4) was 1 to 10 nM and the IC50 (SKOV-3) was 1 to 10 nM. For the same molecule, the EC50 (Caspase 3/7 (SKOV-3)) was 1 to 10 nM, the “PK plasma exposure at 1 h (IP, 10 mg/kg)” value [1] was “iii (iii=500-1000 nM)” and the EC50 (Caspase 9 (SKOV-3)) was under 1 nM. For the same molecule, the Ki (XIAP-BIR3) was 10 to 100 nM and the “sensitizing effect on lung cancer cells” value (H460 lung cancer cells) was “sensitizing effect”.
